# Source: patent publication US9512140B2, “(Thieno[2,3-b][1,5]benzoxazepin-4-yl)piperazin-1-yl compounds as dual activity H1 inverse agonists/5-HT2A antagonists” (priority 2011, dated 2016)
# System: Rats
# Experiment: Sleep and behavioral monitoring in rats (EEG, EMG, motion)
# Assay type: in vivo
# Conditions: for Rebound Insomnia, Adj. Mean: NREM+REM sleep in 7th-9th hours post-treatment; for Rebound Insomnia, Adj. Mean / REM inhibition, Adj. Mean / Cumulative Total sleep, Adj. Mean / Locomotor Activity Intensity, Adj. Mean: difference from vehicle; for REM inhibition, Adj. Mean: cumulative REM sleep, first 12 hr. post-treatment; for Average Sleep Bout, Adj. Mean / Longest Sleep Bout, Adj. Mean / Cumulative Total sleep, Adj. Mean / Cumulative NREM sleep, Adj. Mean / Locomotor Activity Intensity, Adj. Mean: first 6 hr. post-treatment; for Cumulative Total sleep, Adj. Mean: NREM+REM; for Cumulative NREM sleep, Adj. Mean: adjusted difference from vehicle controls
# Protocol: The compound of the present invention is tested in rats for its ability to increase the amount of sleep or decrease sleep interruption or both without undesired effects such as inhibition of REM sleep, waking motor impairment, and/or rebound insomnia. Test animals are continuously monitored by electro-encephalograms (EEG), electromyograms (EMG), and motion to measure cumulative nonREM sleep, cumulative total sleep, average sleep bout duration, longest sleep bout duration, rebound insomnia. REM sleep inhibition and locomotor activity intensity during wakefulness. Methods for such studies are known in the art (see for example methods described in Edgar D M, Seidel W F. Modafinil induces wakefulness without intensifying motor activity or subsequent rebound hypersomnolence in the rat. J Pharmacology & Experimental Therapeutics 1997; 283: 757-769; van Gelder R N, Edgar D M, Dement W C. Real-time automated sleep scoring: validation of a microcomputer-based system for mice. Sleep 1991, 14: 48-55; and Gross B A, Walsh C M, Turakhia A A, Booth V, Mashour G A, Poe G R. Open-source logic-based automated sleep scoring software using electrophysiological recordings in rats. J Neurosci Methods. 2009; 184(1):10-8.) Studies are conducted as follows:
# Adult, male Wistar rats (approximately 270-300 g at time of surgery) are surgically fitted for chronic recording of EEG, EMG, and motion as follows: Rats are surgically prepared with a cranial implant consisting of four stainless steel screws for EEG recording (two frontal [3.9 mm anterior from bregma, and ±2.0 mm mediolaterally] and two occipital [6.4 mm posterior from bregma, ±5.5 mm mediolaterally]), and with two Teflon-coated stainless steel wires for EMG recording (positioned under the nuchal trapezoid muscles). All leads are soldered to a miniature connector (Microtech, Boothwyn, Pa.) prior to surgery. The implant assembly is affixed to the skull by the combination of the stainless steel EEG recording screws, cyanoacrylate applied between the implant connector and skull, and dental acrylic. Locomotor activity is monitored via a miniature transmitter (Minimitter PDT4000G, Philips Respironics, Bend, Oreg.) surgically placed into the abdomen. At least 3 weeks are allowed for recovery.
# Each rat is housed individually within a microisolator cage modified with an inserted polycarbonate filter-top riser to allow more vertical headroom. A flexible cable that minimally restricts movement is connected at one end to a commutator afixed to the cage top and at the other end to the animal's cranial implant. Each cage is located within separate, ventilated compartments of a stainless steel sleep-wake recording chamber. Food and water are available ad libitum and the ambient temperature is maintained at about 23±1° C. A 24-hr light-dark cycle (LD 12:12) using fluorescent light is maintained throughout the study. Relative humidity averages approximately 50%. Animals are undisturbed for at least 30 hrs before and after each treatment.
# The vehicle (placebo, methylcellulose 15 centipoise 0.25% in water) or one of the test compound dose levels is administered orally at 1 mL/kg pseudo-randomly such that no rat receives the same treatment twice, and no rat receives more than two of the 8 treatments in any one study. Each rat is removed from its cage for about a minute to be weighed and treated. At least 6 days “washout” period precede and follow each treatment. […]
structure (smiles),measurement,setting,value
"Cc1ccc2c(c1)Oc1sc(C)cc1C(N1CCN(CC(C)(C)C(=O)O)CC1)=N2 [Example 3, 3-[4-(2,8-Dimethylthieno[2,3-b][1,5]benzoxazepin-4-yl)piperazin-1-yl]-2,2-dimethyl-propanoic acid; 4-methylbenzenesulfonic acid]","Rebound Insomnia, Adj. Mean",0.025 mg/kg PO,0.3 min
same,"REM inhibition, Adj. Mean",0.025 mg/kg PO,-2.7 min
same,"Average Sleep Bout, Adj. Mean",0.025 mg/kg PO,1.0 n-fold increase over vehicle controls
same,"Longest Sleep Bout, Adj. Mean",0.025 mg/kg PO,1.0 n-fold increase over vehicle controls
same,"Cumulative Total sleep, Adj. Mean",0.025 mg/kg PO,-2.3 min
same,"Cumulative NREM sleep, Adj. Mean",0.025 mg/kg PO,1.3 min
same,"Locomotor Activity Intensity, Adj. Mean",0.025 mg/kg PO,−0.1 LMA counts per minute of EEG-defined wakefulness
same,"Rebound Insomnia, Adj. Mean",0.25 mg/kg PO,1.0 min
same,"REM inhibition, Adj. Mean",0.25 mg/kg PO,-1.5 min
same,"Average Sleep Bout, Adj. Mean",0.25 mg/kg PO,1.6 n-fold increase over vehicle controls
same,"Longest Sleep Bout, Adj. Mean",0.25 mg/kg PO,1.6 n-fold increase over vehicle controls
same,"Cumulative Total sleep, Adj. Mean",0.25 mg/kg PO,33.5 min
same,"Cumulative NREM sleep, Adj. Mean",0.25 mg/kg PO,34.3 min
same,"Locomotor Activity Intensity, Adj. Mean",0.25 mg/kg PO,−1.6 LMA counts per minute of EEG-defined wakefulness
same,"Rebound Insomnia, Adj. Mean",0.5 mg/kg PO,-0.3 min
same,"REM inhibition, Adj. Mean",0.5 mg/kg PO,0.7 min
same,"Average Sleep Bout, Adj. Mean",0.5 mg/kg PO,1.6 n-fold increase over vehicle controls
same,"Longest Sleep Bout, Adj. Mean",0.5 mg/kg PO,2.1 n-fold increase over vehicle controls
same,"Cumulative Total sleep, Adj. Mean",0.5 mg/kg PO,21.7 min
same,"Cumulative NREM sleep, Adj. Mean",0.5 mg/kg PO,21.7 min
same,"Locomotor Activity Intensity, Adj. Mean",0.5 mg/kg PO,0.0 LMA counts per minute of EEG-defined wakefulness
same,"Rebound Insomnia, Adj. Mean",1 mg/kg PO,-3.8 min
same,"REM inhibition, Adj. Mean",1 mg/kg PO,0.1 min
same,"Average Sleep Bout, Adj. Mean",1 mg/kg PO,1.7 n-fold increase over vehicle controls
same,"Longest Sleep Bout, Adj. Mean",1 mg/kg PO,2.2 n-fold increase over vehicle controls
same,"Cumulative Total sleep, Adj. Mean",1 mg/kg PO,30.8 min
same,"Cumulative NREM sleep, Adj. Mean",1 mg/kg PO,31.9 min
same,"Locomotor Activity Intensity, Adj. Mean",1 mg/kg PO,−2.5 LMA counts per minute of EEG-defined wakefulness
same,"Rebound Insomnia, Adj. Mean",3 mg/kg PO,-1.3 min
same,"REM inhibition, Adj. Mean",3 mg/kg PO,-4.2 min
same,"Average Sleep Bout, Adj. Mean",3 mg/kg PO,1.5 n-fold increase over vehicle controls
same,"Longest Sleep Bout, Adj. Mean",3 mg/kg PO,1.9 n-fold increase over vehicle controls
same,"Cumulative Total sleep, Adj. Mean",3 mg/kg PO,26.9 min
same,"Cumulative NREM sleep, Adj. Mean",3 mg/kg PO,29.2 min
same,"Locomotor Activity Intensity, Adj. Mean",3 mg/kg PO,−2.6 LMA counts per minute of EEG-defined wakefulness
same,"Rebound Insomnia, Adj. Mean",10 mg/kg PO,0.4 min
same,"REM inhibition, Adj. Mean",10 mg/kg PO,-12.1 min
same,"Average Sleep Bout, Adj. Mean",10 mg/kg PO,1.7 n-fold increase over vehicle controls
same,"Longest Sleep Bout, Adj. Mean",10 mg/kg PO,1.9 n-fold increase over vehicle controls
same,"Cumulative Total sleep, Adj. Mean",10 mg/kg PO,32.8 min
same,"Cumulative NREM sleep, Adj. Mean",10 mg/kg PO,36.7 min
same,"Locomotor Activity Intensity, Adj. Mean",10 mg/kg PO,−3.7 LMA counts per minute of EEG-defined wakefulness
same,"change in awake time following treatment, dose response curve (FIG. 2)",rat,does not result in rebound insomnia
same,"change in cumulative REM sleep time, dose response curve (FIG. 1)",rat,does not inhibit REM sleep
same,"change in distances moved during periods of wakefulness, dose response curve (FIG. 3)",rat,does not inhibit or stimulate normal activity
